{
  "source": "patent US7625875B2",
  "about": "(priority 2002, dated 2009)",
  "key": {"[1]": {"assay": "Safety in the chimpanzee model of chronic HCV infection", "assay_type": "in vivo", "conditions": "10 or 20 mg/kg/day dihydrochloride PO, 7 days", "from_the_text": "Chimpanzees were monitored by trained veterinarians throughout the study for weight loss, temperature, appetite, and general well being, as well as for blood chemistry profile and CBCs. […] The drug appeared to be well tolerated by all four treated animals. […] A single animal experienced an alanine aminotransferase (ALT) flare in the pretreatment period prior to the start of dosing, but the ALT levels diminished during treatment. Thus, this isolated ALT event was not attributable to drug."}, "HCV": {"tested_on": "HCV", "assay": "Clinical antiviral activity, serum HCV RNA (Amplicor HCV Monitor), val-mCyd daily for 15 days"}},
  "data": [
    {"smiles": "CC(C)C(N)C(=O)OC1[C@@H](CO)O[C@@H](n2ccc(N)nc2=O)[C@@]1(C)O", "note": "(some centres unmarked) [val-mCyd, 2-Amino-3-methyl-butyric acid 5-(4-amino-2-oxo-2H-pyrimidine-1-yl)-4-hydroxy-2 hydroxy-methyl-4-methyl-tetrahydro-furan-3-yl ester]", "values": [
      {"measurement": "adverse events, tolerability", "setting": "[1]", "result": "No adverse events due to drug were noted"},
      {"measurement": "HCV RNA in Log10 scale, mean", "setting": "HCV; 50 mg, Day 1 (baseline)", "result": 6.72, "unit": "log10"},
      {"measurement": "HCV RNA in Log10 scale, median", "setting": "HCV; 50 mg, Day 1 (baseline)", "result": 6.69, "unit": "log10"},
      {"measurement": "Change from baseline (Day 1) in Log10 HCV RNA, mean", "setting": "HCV; 50 mg, Day 2", "result": "−0.13", "unit": "log10"},
      {"measurement": "Change from baseline (Day 1) in Log10 HCV RNA, median", "setting": "HCV; 50 mg, Day 2", "result": "−0.07", "unit": "log10"},
      {"measurement": "HCV RNA in Log10 scale, mean", "setting": "HCV; 50 mg, Day 2", "result": 6.60, "unit": "log10"},
      {"measurement": "HCV RNA in Log10 scale, median", "setting": "HCV; 50 mg, Day 2", "result": 6.58, "unit": "log10"},
      {"measurement": "Change from baseline (Day 1) in Log10 HCV RNA, mean", "setting": "HCV; 50 mg, Day 4", "result": "−0.16", "unit": "log10"},
      {"measurement": "Change from baseline (Day 1) in Log10 HCV RNA, median", "setting": "HCV; 50 mg, Day 4", "result": "−0.13", "unit": "log10"},
      {"measurement": "HCV RNA in Log10 scale, mean", "setting": "HCV; 50 mg, Day 4", "result": 6.56, "unit": "log10"},
      {"measurement": "HCV RNA in Log10 scale, median", "setting": "HCV; 50 mg, Day 4", "result": 6.55, "unit": "log10"},
      {"measurement": "Change from baseline (Day 1) in Log10 HCV RNA, mean", "setting": "HCV; 50 mg, Day 8", "result": "−0.11", "unit": "log10"},
      {"measurement": "Change from baseline (Day 1) in Log10 HCV RNA, median", "setting": "HCV; 50 mg, Day 8", "result": "−0.06", "unit": "log10"},
      {"measurement": "HCV RNA in Log10 scale, mean", "setting": "HCV; 50 mg, Day 8", "result": 6.62, "unit": "log10"},
      {"measurement": "HCV RNA in Log10 scale, median", "setting": "HCV; 50 mg, Day 8", "result": 6.56, "unit": "log10"},
      {"measurement": "Change from baseline (Day 1) in Log10 HCV RNA, mean", "setting": "HCV; 50 mg, Day 11", "result": "−0.26", "unit": "log10"},
      {"measurement": "Change from baseline (Day 1) in Log10 HCV RNA, median", "setting": "HCV; 50 mg, Day 11", "result": "−0.26", "unit": "log10"},
      {"measurement": "HCV RNA in Log10 scale, mean", "setting": "HCV; 50 mg, Day 11", "result": 6.47, "unit": "log10"},
      {"measurement": "HCV RNA in Log10 scale, median", "setting": "HCV; 50 mg, Day 11", "result": 6.46, "unit": "log10"},
      {"measurement": "Change from baseline (Day 1) in Log10 HCV RNA, mean", "setting": "HCV; 50 mg, Day 15", "result": "−0.15", "unit": "log10"},
      {"measurement": "Change from baseline (Day 1) in Log10 HCV RNA, median", "setting": "HCV; 50 mg, Day 15", "result": "−0.10", "unit": "log10"},
      {"measurement": "HCV RNA in Log10 scale, mean", "setting": "HCV; 50 mg, Day 15", "result": 6.57, "unit": "log10"},
      {"measurement": "HCV RNA in Log10 scale, median", "setting": "HCV; 50 mg, Day 15", "result": 6.57, "unit": "log10"},
      {"measurement": "Change from baseline (Day 1) in Log10 HCV RNA, mean", "setting": "HCV; 50 mg, Day 16", "result": "−0.15", "unit": "log10"},
      {"measurement": "Change from baseline (Day 1) in Log10 HCV RNA, median", "setting": "HCV; 50 mg, Day 16", "result": "−0.13", "unit": "log10"},
      {"measurement": "HCV RNA in Log10 scale, mean", "setting": "HCV; 50 mg, Day 16", "result": 6.57, "unit": "log10"},
      {"measurement": "HCV RNA in Log10 scale, median", "setting": "HCV; 50 mg, Day 16", "result": 6.45, "unit": "log10"},
      {"measurement": "Change from baseline (Day 1) in Log10 HCV RNA, mean", "setting": "HCV; 50 mg, Day 17", "result": "−0.18", "unit": "log10"},
      {"measurement": "Change from baseline (Day 1) in Log10 HCV RNA, median", "setting": "HCV; 50 mg, Day 17", "result": "−0.21", "unit": "log10"},
      {"measurement": "HCV RNA in Log10 scale, mean", "setting": "HCV; 50 mg, Day 17", "result": 6.54, "unit": "log10"},
      {"measurement": "HCV RNA in Log10 scale, median", "setting": "HCV; 50 mg, Day 17", "result": 6.54, "unit": "log10"},
      {"measurement": "Change from baseline (Day 1) in Log10 HCV RNA, mean", "setting": "HCV; 50 mg, Day 22", "result": "−0.09", "unit": "log10"},
      {"measurement": "Change from baseline (Day 1) in Log10 HCV RNA, median", "setting": "HCV; 50 mg, Day 22", "result": "−0.09", "unit": "log10"},
      {"measurement": "HCV RNA in Log10 scale, mean", "setting": "HCV; 50 mg, Day 22", "result": 6.64, "unit": "log10"},
      {"measurement": "HCV RNA in Log10 scale, median", "setting": "HCV; 50 mg, Day 22", "result": 6.73, "unit": "log10"},
      {"measurement": "Change from baseline (Day 1) in Log10 HCV RNA, mean", "setting": "HCV; 50 mg, Day 29", "result": "−0.01", "unit": "log10"},
      {"measurement": "Change from baseline (Day 1) in Log10 HCV RNA, median", "setting": "HCV; 50 mg, Day 29", "result": "−0.04", "unit": "log10"},
      {"measurement": "HCV RNA in Log10 scale, mean", "setting": "HCV; 50 mg, Day 29", "result": 6.71, "unit": "log10"},
      {"measurement": "HCV RNA in Log10 scale, median", "setting": "HCV; 50 mg, Day 29", "result": 6.67, "unit": "log10"},
      {"measurement": "HCV RNA in Log10 scale, mean", "setting": "HCV; 50 mg, Day −1 (pre-treatment)", "result": 6.72, "unit": "log10"},
      {"measurement": "HCV RNA in Log10 scale, median", "setting": "HCV; 50 mg, Day −1 (pre-treatment)", "result": 6.81, "unit": "log10"},
      {"measurement": "HCV RNA in Log10 scale, mean", "setting": "HCV; 100 mg, Day 1 (baseline)", "result": 6.68, "unit": "log10"},
      {"measurement": "HCV RNA in Log10 scale, median", "setting": "HCV; 100 mg, Day 1 (baseline)", "result": 6.93, "unit": "log10"},
      {"measurement": "Change from baseline (Day 1) in Log10 HCV RNA, mean", "setting": "HCV; 100 mg, Day 2", "result": "−0.16", "unit": "log10"},
      {"measurement": "Change from baseline (Day 1) in Log10 HCV RNA, median", "setting": "HCV; 100 mg, Day 2", "result": "−0.12", "unit": "log10"},
      {"measurement": "HCV RNA in Log10 scale, mean", "setting": "HCV; 100 mg, Day 2", "result": 6.52, "unit": "log10"},
      {"measurement": "HCV RNA in Log10 scale, median", "setting": "HCV; 100 mg, Day 2", "result": 6.80, "unit": "log10"},
      {"measurement": "Change from baseline (Day 1) in Log10 HCV RNA, mean", "setting": "HCV; 100 mg, Day 4", "result": "−0.25", "unit": "log10"},
      {"measurement": "Change from baseline (Day 1) in Log10 HCV RNA, median", "setting": "HCV; 100 mg, Day 4", "result": "−0.24", "unit": "log10"},
      {"measurement": "HCV RNA in Log10 scale, mean", "setting": "HCV; 100 mg, Day 4", "result": 6.43, "unit": "log10"},
      {"measurement": "HCV RNA in Log10 scale, median", "setting": "HCV; 100 mg, Day 4", "result": 6.46, "unit": "log10"},
      {"measurement": "Change from baseline (Day 1) in Log10 HCV RNA, mean", "setting": "HCV; 100 mg, Day 8", "result": "−0.21", "unit": "log10"},
      {"measurement": "Change from baseline (Day 1) in Log10 HCV RNA, median", "setting": "HCV; 100 mg, Day 8", "result": "−0.20", "unit": "log10"},
      {"measurement": "HCV RNA in Log10 scale, mean", "setting": "HCV; 100 mg, Day 8", "result": 6.42, "unit": "log10"},
      {"measurement": "HCV RNA in Log10 scale, median", "setting": "HCV; 100 mg, Day 8", "result": 6.59, "unit": "log10"},
      {"measurement": "Change from baseline (Day 1) in Log10 HCV RNA, mean", "setting": "HCV; 100 mg, Day 11", "result": "−0.32", "unit": "log10"}
    ]}
  ]
}
